Data published in patent publication US10961242B2, “Compounds as autotaxin inhibitors and pharmaceutical compositions comprising the same” (LegoChem Biosciences, Inc., priority 2018, dated 2021).
Where two headings read alike, the source gives them in different places.

Assays:
Type in all cases: biochemical
human ENPP2 = human ENPP2 (Homo sapiens (Human), UniProt Q13822); experiment: Inhibitory activity on human ENPP2 (FS-3 assay)
Experimental: Two-fold dilution of each test compound solution (10 μM, 100% dimethyl sulfoxide) is carried out on 96-well V bottom plate (Costar 3363). After ten-fold dilution of each the test compound solution (100% dimethyl sulfoxide) with deionized distilled water, 10 μL of the diluted each mpound solution (10% dimethyl sulfoxide) was aliquoted to a black flat bottom 96-well plate (Costar 3915).

[1] = test system: LPA production in blood serum caused by autotoxin; experiment: Inhibitory activity on LPA production in mouse blood serum; conditions: mouse blood serum (m), 18:1 LPC, 3 hours at 37° C.
Experimental: After 100-fold dilution of each test compound solution (5 μL) (10 mM, 100%, dimethyl sulfoxide) with 495 μL of methanol, 3 μL of the diluted methanol solution (1% dimethyl sulfoxide) was mixed with 57 μL of human or mouse blood serum solution in a 1.5 mL tube. […] Subsequently, a solution prepared by diluting 10 mg/mL 18:1 LPC solution (50% ethanol) with blood serum to have concentration of 375 μg/mL was aliquoted in an amount of 2 μL to each tube so as to have 50 μL. Each tube was kept for 3 hours in a water bath at 37° C. to allow a reaction. To the tube obtained after the reaction, 100 μL of 0.5 μM 17:0 LPA solution (chloroform/methanol/water=65/35/8) was aliquoted and mixed therein. Centrifuge was carried out for 10 minutes using a centrifuge at conditions of 14,000 rpm and 4° C. 100 μL of 50% methanol solution is aliquoted first to a 96-well polypropylene plate (Agilent Technology 5042-1385), and the supernatant (50 μL) in a tube after the centrifuge was carefully transferred to the plate followed by mixing. After covering it with Well cap (Thermo 276011), analysis was carried out by LC-MS/MS (Agilent 1260).
In the following Table 3, the mouse blood serum was described as (m) and human blood serum was described as (h).

human ATX = human ATX (Homo sapiens (Human), UniProt Q13822); experiment: Bis-pNPP assay; conditions: bis-pNPP substrate, read-out: Enzymatic assay (IC50) bis-pNPP
Experimental: Eight-fold dilution of each test compound solution (10 μM, 100% dimethyl sulfoxide) is carried out on 96-well V bottom plate (Costar 3363). After […] of each test compound solution (100% dimethyl sulfoxide) with deionized distilled water, 10 μL of the diluted each test compound solution (10% dimethyl sulfoxide) was aliquoted to a black flat bottom 96-well plate (Costar 3915). 50 μL of 60 mM Tris-HCl (pH9.0) buffer was added thereto, and subsequently 20 μL of 3.75 nM human ATX solution (buffer solution: 50 mM Tris-HCl (pH8.5), 5 mM CaCl2, 2.5 mM MgCl2, 0.01% Brij35) and 20 μL of 25 mM Bis-pNPP (bis(p-Nitrophenyl)-phosphate sodium salt) solution (buffer solution: 50 mM Tris-HCl (pH9.0)) were added thereto, respectively, followed by mixing. […] Furthermore, IC50 values that are shown in Table 3 were calculated using Grafit5 Software based on the inhibitory activity percentage ratio.

[2] = human ENPP2, FS-3 substrate, 30 min at 37° C., read-out: IC50
[3] = FS-3 assay, same process as Test example 1, read-out: Enzymatic assay (IC50) FS-3

SMILES | IC50 (human ENPP2; [2]) [nM] | IC50 [1] [nM] | IC50 (human ENPP2; read-out: IC50) [nM] | IC50 (human ENPP2; [3]) [nM] | IC50 (human ATX) [nM]
O=C(NCCC(=O)N1CCc2[nH]nnc2C1)c1cnc(NCc2cccc(OC(F)(F)F)c2)nc1 [Compound 2, N-(3-oxo-3-{1H,4H,5H,6H,7H-[1,2,3]triazolo[4,5-c]pyridin-5-yl}propyl)-2-({[3-(trifluoromethoxy)phenyl]methyl}amino)pyrimidine-5-carboxamide] | 2.1 | 23 | – | – | –
O=C(NC[C@H]1CN(c2ccc3[nH]c(=O)oc3c2)C(=O)O1)c1cnc(NCc2cccc(OC(F)(F)F)c2)nc1 [Compound 10, N-{[(5S)-2-oxo-3-(2-oxo-2,3-dihydro-1,3-benzoxazol-6-yl)-1,3-oxazolidin-5-yl]methyl}-2-({[3-(trifluoromethoxy)phenyl]methyl}amino)pyrimidine-5-carboxamide] | – | 10 | 2.8 | – | –
O=C(CCN1CCc2[nH]nnc2C1)N1CCN(c2cnc(NC3Cc4ccccc4C3)nc2)CC1 [Compound 12, 1-(4-{2-[(2,3-dihydro-1H-inden-2-yl)amino]pyrimidin-5-yl}piperazin-1-yl)-3-{1H,4H,5H,6H,7H-[1,2,3]triazolo[4,5-c]pyridin-5-yl}propan-1-one] | 3.2 | 11 | – | – | –
O=C(CCN1CCc2[nH]nnc2C1)N1CCN(c2cnc(NCc3cccc(OC(F)(F)F)c3)nc2)CC1 [Compound 13, 3-{1H,4H,5H,6H,7H-[1,2,3]triazolo[4,5-c]pyridin-5-yl}-1-{4-[2-({[3(trifluoromethoxy)phenyl]methyl}amino)pyrimidin-5-yl]piperazin-1-yl}propan-1-one] | 3.7 | 13 | – | – | –
O=C(CCN1CCc2[nH]nnc2C1)N1CCC(c2cnc(NC3Cc4ccccc4C3)nc2)CC1 [Compound 14, 1-(4-{2-[(2,3-dihydro-1H-inden-2-yl)amino]pyrimidin-5-yl}piperidin-1-yl)-3-{1H,4H,5H,6H,7H-[1,2,3]triazolo[4,5-c]pyridin-5-yl}propan-1-one] | 2.4 | 8 | – | – | –
CC(C)(CN1CCc2[nH]nnc2C1)C(=O)N1CCN(c2cnc(NC3Cc4ccccc4C3)nc2)CC1 [Compound 19, 1-(4-{2-[(2,3-dihydro-1H-inden-2-yl)amino]pyrimidin-5-yl}piperazin-1-yl)-2,2-dimethyl-3-{1H,4H,5H,6H,7H-[1,2,3]triazolo[4,5-c]pyridin-5-yl}propan-1-one] | 3.1 | 25 | – | – | –
O=C(CN1CCN(c2cnc(NC3Cc4ccccc4C3)nc2)CC1)N1CCc2[nH]nnc2C1 [Compound 20, 2-(4-{2-[(2,3-dihydro-1H-inden-2-yl)amino]pyrimidin-5-yl}piperazin-1-yl)-1-{1H,4H,5H,6H,7H-[1,2,3]triazolo[4,5-c]pyridin-5-yl}ethan-1-one] | 2.6 | 29 | – | – | –
O=C(CN1CCC(c2cnc(NC3Cc4ccccc4C3)nc2)CC1)N1CCc2[nH]nnc2C1 [Compound 22, 2-(4-{2-[(2,3-dihydro-1H-inden-2-yl)amino]pyrimidin-5-yl}piperidin-1-yl)-1-{1H,4H,5H,6H,7H-[1,2,3]triazolo[4,5-c]pyridin-5-yl}ethan-1-one] | 2.9 | 57 | – | – | –
O=C(CN1CCN(c2cnc(NC3Cc4ccccc4C3)nc2)CC1)Nc1ccc2[nH]c(=O)oc2c1 [Compound 27, 2-(4-{2-[(2,3-dihydro-1H-inden-2-yl)amino]pyrimidin-5-yl}piperazin-1-yl)-N-(2-oxo-2,3-dihydro-1,3-benzoxazol-6-yl)acetamide] | 2.4 | 10 | – | – | –
O=C(Cc1nnc(-c2cnc(NCc3cccc(OC(F)(F)F)c3)nc2)o1)N1CCc2[nH]nnc2C1 [Compound 34, 1-{1H,4H,5H,6H,7H-[1,2,3]triazolo[4,5-c]pyridin-5-yl}-2-{5-[2-({[3-(trifluoromethoxy)phenyl]methyl}amino)pyrimidin-5-yl]-1,3,4-oxadiazol-2-yl}ethan-1-one] | 2 | 52 | – | – | –
O=C(Cn1cc(-c2cnc(NC3Cc4ccccc4C3)nc2)c(CN2CCNCC2)n1)N1CCc2[nH]nnc2C1 [Compound 89, 2-(4-{2-[(2,3-dihydro-1H-inden-2-yl)amino]pyrimidin-5-yl}-3-(piperazin-1-ylmethyl)-1H-pyrazol-1-yl)-1-{1H,4H,5H,6H,7H-[1,2,3]triazolo[4,5-c]pyridin-5-yl}ethan-1-one] | 4.2 | 21 | – | – | –
CCN1CCN(Cc2nn(CC(=O)N3CCc4[nH]nnc4C3)cc2-c2cnc(NC3Cc4ccccc4C3)nc2)CC1 [Compound 91, 2-(4-{2-[(2,3-dihydro-1H-inden-2-yl)amino]pyrimidin-5-yl}-3-[(4-ethylpiperazin-1-yl)methyl]-1H-pyrazol-1-yl)-1-{1H,4H,5H,6H,7H-[1,2,3]triazolo[4,5-c]pyridin-5-yl}ethan-1-one] | 2.4 | – | – | – | –
O=C(Cn1cc(-c2cnc(NC3Cc4ccccc4C3)nc2)c(CN2CCN(CC(F)F)CC2)n1)N1CCc2[nH]nnc2C1 [Compound 92, 2-(3-{[4-(2,2-difluoroethyl)piperazin-1-yl]methyl}-4-{2-[(2,3-dihydro-1H-inden-2-yl)amino]pyrimidin-5-yl}-1H-pyrazol-1-yl)-1-{1H,4H,5H,6H,7H-[1,2,3]triazolo[4,5-c]pyridin-5-yl}ethan-1-one] | 2.3 | – | – | – | –
O=C(Cn1cc(-c2cnc(NC3Cc4ccccc4C3)nc2)c(CCN2CCOCC2)n1)N1CCc2[nH]nnc2C1 [Compound 93, 2-(4-{2-[(2,3-dihydro-1H-inden-2-yl)amino]pyrimidin-5-yl}-3-[2-(morpholin-4-yl)ethyl]-1H-pyrazol-1-yl)-1-{1H,4H,5H,6H,7H-[1,2,3]triazolo[4,5-c]pyridin-5-yl}ethan-1-one] | 2.1 | – | – | – | –
CCc1nn(CC(=O)N2CCN(C(=O)CO)CC2)cc1-c1cnc(NC2Cc3ccccc3C2)nc1 [Compound 94, 1-{4-[2-(4-{2-[(2,3-dihydro-1H-inden-2-yl)amino]pyrimidin-5-yl}-3-ethyl-1H-pyrazol-1-yl)acetyl]piperazin-1-yl}-2-hydroxyethan-1-one] | 2.3 | – | – | – | –
NC1CCC(c2nn(CC(=O)N3CCc4[nH]nnc4C3)cc2-c2cnc(NC3Cc4ccccc4C3)nc2)CC1 (centres unmarked) [Compound 99, 2-[3-(4-aminocyclohexyl)-4-{2-[(2,3-dihydro-1H-inden-2-yl)amino]pyrimidin-5-yl}-1H-pyrazol-1-yl]-1-{1H,4H,5H,6H,7H-[1,2,3]triazolo[4,5-c]pyridin-5-yl}ethan-1-one] | – | – | – | 2.8 | 5.59
Cc1nc(-c2cnc(NC3Cc4ccccc4C3)nc2)cn1CC(=O)N1CCc2[nH]nnc2C1 [Compound 107, 2-(4-{2-[(2,3-dihydro-1H-inden-2-yl)amino]pyrimidin-5-yl}-2-methyl-1H-imidazol-1-yl)-1-{1H,4H,5H,6H,7H-[1,2,3]triazolo[4,5-c]pyridin-5-yl}ethan-1-one] | – | – | – | 1.56 | 4.87
O=C(Cc1cn(-c2ccc(Cl)cc2)c(-c2cnc(NC3Cc4ccccc4C3)nc2)n1)N1CCc2[nH]nnc2C1 [Compound 117, 2-[1-(4-chlorophenyl)-2-{2-[(2,3-dihydro-1H-inden-2-yl)amino]pyrimidin-5-yl}-1H-imidazol-4-yl]-1-{1H,4H,5H,6H,7H-[1,2,3]triazolo[4,5-c]pyridin-5-yl}ethan-1-one] | – | – | – | 1.84 | > 100
